{"source": "patent US6683105B2", "about": "(priority 1997, dated 2004)", "key": {"human plasma BChE": {"molecular_target": "T1, human plasma BChE (Homo sapiens, UniProt P06276)", "T1 construct": "human plasma BChE; from tissue; host or cells: human plasma", "T1 sequence (P06276 29-602)": "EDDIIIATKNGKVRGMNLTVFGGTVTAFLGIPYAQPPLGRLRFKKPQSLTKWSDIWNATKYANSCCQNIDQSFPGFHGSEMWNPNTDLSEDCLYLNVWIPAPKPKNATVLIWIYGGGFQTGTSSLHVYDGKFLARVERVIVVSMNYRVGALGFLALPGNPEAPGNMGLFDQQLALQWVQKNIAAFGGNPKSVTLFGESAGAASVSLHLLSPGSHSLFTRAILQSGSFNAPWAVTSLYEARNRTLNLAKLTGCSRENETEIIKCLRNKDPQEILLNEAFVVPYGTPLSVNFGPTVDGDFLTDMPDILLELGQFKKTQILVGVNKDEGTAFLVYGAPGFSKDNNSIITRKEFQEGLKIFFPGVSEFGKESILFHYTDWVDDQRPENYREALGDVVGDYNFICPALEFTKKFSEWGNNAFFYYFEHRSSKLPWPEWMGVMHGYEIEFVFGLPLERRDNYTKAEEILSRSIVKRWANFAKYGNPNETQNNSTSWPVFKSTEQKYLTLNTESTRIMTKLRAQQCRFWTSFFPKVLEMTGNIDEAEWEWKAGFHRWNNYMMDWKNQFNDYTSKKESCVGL", "assay": "BChE inhibition, IC(50) by logit plot", "format": "biochemical", "conditions": "BChE compared with AChE", "procedure": "The IC (50) values can be determined for such inhibitors using methods well known in the art. In such assay the pharmacological activity of each compound, as an IC (50), defined as the concentration, in nanomoles, required to inhibit 50% of the enzyme activity of AChE and BChE, is determined separately. For determination of IC (50) values, the enzyme activity of each concentration was expressed as a percent of that determined in the absence of each compound. This then was transformed into a logit format, where logit=In (% activity/[100-% activity]), and was plotted as a function of the log concentration of the compound. IC (50) values (i.e., logit=In (50/[100−5O]=0) were determined only from correlation coefficients (r^2) of less than −0.985 and when more than 50% inhibition was achieved from duplicate samples. The selectivity ratio is then determined by comparing the IC (50) values obtained for each compound with AChE to that for BChE."}, "[1]": {"test_system": "βAPP secretion, glioblastoma, HeLa, neuroblastoma and PCI2 cell lines", "conditions": "neuronal cells treated with cholinesterase inhibitors; cited from earlier work"}, "[2]": {"assay": "Brain and plasma time-dependent kinetics by HPLC", "format": "in vivo", "conditions": "rat", "procedure": "Determination of the brain and plasma time-dependent kinetics of cymserine in the rats is undertaken by administering compound into the saphenous vein of anesthetized animals. Animals are killed by excess anesthetic at specific times and blood and brain samples are immediately taken. The blood is centrifuged (10,000 g, 2 min), plasma is collected and, together with the sample of brain, is stored at −80° C. Quantitation of concentrations of cymserine is undertaken by high performance liquid chromatography."}, "[3]": {"test_system": "aged Fischer-344 (F344) rats", "assay": "One-way active avoidance pretraining in straight runway", "format": "in vivo, rat", "conditions": "for mean (s.e.m.) avoidances: pretraining, i.p. daily", "excerpt": "(§1) Male F344 rats 21-22 months old were obtained from Harlan-Sprague-Dawley under contract from the National Institute on Aging. They were maintained two per cage in a vivarium at the Gerontology Research Center under specific pathogen free conditions as characterized previously.\n(§2) As previously described, the Stone maze is constructed of translucent plastic with a grid floor wired for scrambled foot shocks and is surrounded by gray walls to reduce availability of extra-maze cues. The only other apparatus was a straight runway (2 m) used for pretraining. Similar to the maze, the runway was also constructed of translucent plastic, and contained a grid floor wired for scrambled foot shocks, and was surrounded by gray walls.\n(§3) […] On days 3-5 injections were made 30 min prior to behavioral testing.\nBeginning on day 2 rats were provided training in one-way active avoidance in the straight runway. On each trial, the rat had to locomote from the start box to the goal box within 10 s to avoid the onset of foot shock (0.8 mA). Rats received 10 trials on day 2 and 10 trials on day 3. Training was terminated when the rat met a performance criteria of eight avoidances within 10 consecutive trials within a maximum of 30 trials. Only rats meeting this criterion were tested in the Stone maze on the next day."}, "secreted βAPP in CSF": {"test_system": "secreted βAPP in CSF", "assay": "CSF βAPP in rats with or without forebrain cholinergic (nbM) lesions", "format": "in vivo, rat", "excerpt": "Cymserine, a representative of selective BChE inhibitors, additionally alters βAPP synthesis/processing in vivo.\nA methodology that can be employed to determine the ability of a selected compound to regulate secreted βAPP levels in vivo is as follows:\nFor forebrain cholinergic system lesions, rats receive a unilateral subcortical lesion of the nucleus basalis of Meynert (nbM) using N-methyl-D-aspartate (NMDA) as an excitotoxin. In undertaking this, rats are anesthetized and placed in a stereotaxic apparatus with the upper incisor bar set level with the intra-aural line. A 33 gauge infusion cannula is lowered into two sites within the nbM on one side of the brain (AP bregma, ML −2.8 mm, DV −8.0 mm re: skull and AP bregma −0.8 mm, ML −3.0 mm, DV −7.8 mm, respectively). One microliter of a solution of 50 mM NMDA in PBS buffer (physiological pH) is slowly infused into each site. Controls for the lesion are vehicle alone and the contralateral side of NMDA treated animals.\nCollection of CSF for analysis of βAPP levels is undertaken by withdrawal of an aliquot from the cistern magna of rats immediately following their death. Quantitation of βAPP is undertaken by immunoblot analysis utilizing mAb22C11."}, "[4]": {"test_system": "aged Fischer-344 (F344) rats", "assay": "14-unit T-maze (Stone maze) learning", "format": "in vivo, rat", "excerpt": "In the present study we assessed the effects of chronic cymserine treatment (5 days) on performance of aged Fischer-344 (F344) rats (21-22 months old) in a 14-unint T-maze, referre to as the Stone maze.\nas §1, §2, §3\nRats received training in the Stone maze scheduled as a 4-trial session during the morning and afternoon on days 4 and 5. During each trial, the rat had to locomote from a start box to a goal box through five maze segments each separated by guiiltine doors. The reinforcement contingency required the rat to negotiate each segment within 10 s to avoid the onset of mild foot shock (0.8 mA), which was terminated when the animal moved through the door into the next segment. After entry into succeeding segments, the door from the preceding segment was closed to prevent backtracking. Recorded as deviations from the correct pathway, errors were the primary dependent variable and were counted automatically by a series of infrared sensors connected to a microprocessor. Run time from the start box to the goal was also recorded automatically. The frequency and duration of foot shock were recorded on a mechanically operated clock."}, "[5]": {"test_system": "βAPP in human neuroblastoma cell lines", "assay": "Cellular and secreted βAPP levels by immunoblot", "format": "cell-based", "procedure": "In further studies, the actions of selective AChE (Compounds 2, 3, (phenserine and tolserine) Table 1) and BChE (Compound 4 (cymserine), Table 1) inhibitors were assessed against human neuroblastoma cell lines. Both secreted levels, measured in the conditioned medium, and cellular levels of βAPP, measured in the cell lysates, were assessed and compared to levels achieved in untreated cells.\nA methodology that can be employed to determine the ability of a selected compound to regulate cellular and secreted βAPP levels is as follows:\n1 to 1.5×10^7 of each cell type (neuronal and non-neuronal) are cultured in their respective medium. Before adding drug, the cells are fed with media containing only 0.5% of FBS (low serum). The cells are then incubated either in the absence or presence of the test compound. Following incubation periods from 12 to 48 hours, the conditioned medium from each plate is collected and both it and the cells are centrifuged at 800 g. for 10 minutes. The conditioned medium is collected and the cells lysed in buffer containing 50 mM Tris-Cl (pH 8.0), 150 mM NaCl, 5 mM EDTA, 2 mM PMSF, 0.5% sodium deoxycholate, 1 ug/ml each of aprotonin, leupeptin and TLCK, and 0.1 ug/ml of pepstatin A. The cells are centrifuged for 10 min at 11,000 g at 4° C. Proteins of the supernatant solution (cell lysate) are measured by the Bradford dye-binding procedure (Bradford, Anal. Biochem. 72: 248-254, 1976).\nFor polyacrylamide gel electrophoresis and immunoblotting: in control experiments, an equivalent concentration of ethanol was used as a vehicle which is less than 1% in media. Compound dosages of from about 0.15 mM to 0.5 mM may be used. 100 uL of conditioned media or 30 ug of protein from the total cell lysate is separated on a 12% polyacrylamide gel containing SDS (SDS-PAGE). Immunoblot analysis was performed using the avidinbiotyinylated complex detection kit of Vector Laboratories as described by Lahiri, et al., J. Neurosci: Res. 12:777-787 (1994). The antisera employed is from the mAb22C11 clone (Boehringer Mannheim) which recognizes all mature forms of βAPP found in cell membranes as well as the carboxyltruncated soluble forms secreted into the conditioned media and the APP-like protein. Additionally, the mAb6E10 is employed which recognizes residues 1 to 28 of Aβ. […] Biotinylated secondary antibodies, horse anti-mouse and goat anti-rabbit (Boehringer Mannheim, and Vector Labs) are also used."}, "[6]": {"conditions": "1.0 mg kg, blocks 3 and 4 vs controls"}}, "note": "“Also recorded” adds a separate entry of the source."}
{"compound": "CNC(=O)Oc1ccc2c(c1)[C@]1(C)CCS[C@@H]1N2C", "note": "[Compound 22, thiaphysovenine]", "values": [{"measurement": "selectivity of inhibitory action for BChE versus AChE", "setting": "human plasma BChE", "result": "selectivity of inhibitory action for BChE"}]}
{"compound": "CNC(=O)Oc1ccc2c(c1)[C@]1(C)CCO[C@@H]1N2C", "note": "[Compound 26, physovenine]", "values": [{"measurement": "selectivity of inhibitory action for BChE versus AChE", "setting": "human plasma BChE", "result": "selectivity of inhibitory action for BChE"}]}
{"compound": "Cc1ccccc1NC(=O)Oc1ccc2c(c1)[C@]1(C)CCN(C)[C@@H]1N2C", "note": "[Compound 3, tolserine, reference compound]", "values": [{"measurement": "selectivity of inhibitory action for BChE versus AChE", "setting": "human plasma BChE", "result": "no selectivity for BChE"}]}
{"compound": "3′-methyl-carbamoyl eseroline", "values": [{"measurement": "selectivity of inhibitory action for BChE versus AChE", "setting": "human plasma BChE", "result": "does not provide BChE selectivity"}]}
{"compound": "CNC(=O)Oc1ccc2c(c1)[C@]1(C)CCN(C)C1N2", "note": "(stereo partly drawn) [Compound 34, N^8-norphysostigmine]", "values": [{"measurement": "selectivity of inhibitory action for BChE versus AChE", "setting": "human plasma BChE", "result": "potent and selective inhibitors of BChE"}]}
{"compound": "CNC(=O)Oc1ccc2c(c1)C1(C)CCN(C)C1N2Cc1ccccc1", "note": "(stereo not drawn) [Compound 30, N^8-benzylnorphysostigmine]", "values": [{"measurement": "selectivity of inhibitory action for BChE versus AChE", "setting": "human plasma BChE", "result": "potent and selective inhibitors of BChE"}]}
{"compound": "COP(=O)(OC)C(O)C(Cl)(Cl)Cl", "note": "(stereo not drawn) [metrifonate]", "values": [{"measurement": "secretion of βAPP", "setting": "[1]", "result": "none of the other drugs, all classical anticholinesterases, produced a change"}]}
{"compound": "Nc1ccncc1N", "note": "[3,4 diaminopyridine]", "values": [{"measurement": "secretion of βAPP", "setting": "[1]", "result": "none of the other drugs, all classical anticholinesterases, produced a change"}]}
{"compound": "CC(C)c1ccc(NC(=O)Oc2ccc3c(c2)[C@]2(C)CCN(C)[C@@H]2N3C)cc1", "note": "[Compound 4, cymserine]", "values": [{"measurement": "brain levels relative to plasma levels", "setting": "[2]; 1 mg/kg by the intravenous route", "result": "~40", "unit": "fold"}, {"measurement": "crossing of the blood-brain barrier", "setting": "[2]; systemic administration", "result": "readily cross the blood-brain barrier"}, {"measurement": "effects of drug treatment during pretraining", "setting": "[3]; all dose groups vs control", "result": "No effects"}, {"measurement": "mean (s.e.m.) avoidances", "setting": "[3]; 1 mg kg cymserine group", "result": "65% (2.8)"}, {"measurement": "mean (s.e.m.) avoidances", "setting": "[3]; 2 mg kg cymserine group", "result": "63% (3.8)"}, {"measurement": "mean (s.e.m.) avoidances", "setting": "[3]; 3 mg kg cymserine group", "result": "61% (3.9)"}, {"measurement": "levels of βAPP in CSF", "setting": "secreted βAPP in CSF; animals without cholinergic lesions, cymserine alone versus pure control rats", "result": "reduced"}, {"measurement": "elevation of secreted βAPP in CSF", "setting": "secreted βAPP in CSF; rats with forebrain cholinergic lesions, intraperitoneal twice daily for 7 days", "result": "blocks the elevation"}, {"measurement": "CSF βAPPγ levels", "setting": "secreted βAPP in CSF; rats, FIG. 3 legend", "result": "reduces"}, {"measurement": "selectivity of inhibitory action for BChE versus AChE", "setting": "human plasma BChE", "result": "selectivity for BChE inhibition"}, {"measurement": "errors across all trials", "setting": "[4]; 1 mg kg group vs controls", "result": "significantly improved performance"}, {"measurement": "shock duration", "setting": "[4]; 1.0 mg kg, block 2", "result": "significantly reduced"}, {"measurement": "run time", "setting": "[4]; [6]", "result": "significantly reduced"}, {"measurement": "shock duration", "setting": "[4]; [6]", "result": "significantly reduced"}, {"measurement": "shock frequency", "setting": "[4]; [6]", "result": "significantly reduced"}, {"measurement": "errors across all trials", "setting": "[4]; 2 mg kg group vs controls", "result": "significantly improved performance"}, {"measurement": "run time", "setting": "[4]; 2.0 mg kg, block 4", "result": "significantly reduced"}, {"measurement": "shock duration", "setting": "[4]; 2.0 mg kg, block 4", "result": "significantly reduced"}, {"measurement": "shock frequency", "setting": "[4]; 2.0 mg kg, block 4", "result": "significantly reduced"}, {"measurement": "errors in the Stone maze", "setting": "[4]; 3 mg kg dose", "result": "least effective"}, {"measurement": "motoric side effects", "setting": "[4]; 3 mg kg dose, a few rats", "result": "fine tremor"}, {"measurement": "shock duration", "setting": "[4]; 3.0 mg kg, block 4", "result": "significantly different from controls"}, {"measurement": "number of errors made in the Stone maze", "setting": "[4]; all doses, compared with control condition", "result": "significantly reduced"}, {"measurement": "learning / cognitive performance of aged rats in the Stone maze", "setting": "[4]; chronic treatment (5 days)", "result": "improves cognitive performance; also recorded: markedly improved"}, {"measurement": "side effects", "setting": "[4]; doses other than 3 mg kg", "result": "no side effects were noted"}, {"measurement": "cellular levels of βAPP", "setting": "[5]; cell lysates, compared to untreated cells", "result": "dramatically reduced"}, {"measurement": "secreted βAPP levels", "setting": "[5]; conditioned medium, compared to untreated cells", "result": "reduced"}, {"measurement": "βAPP levels assessed by mAb22C11 and 6E10", "setting": "[5]; immunoblot, FIG. 2", "result": "dramatically reduce"}, {"measurement": "effect on other secretory proteins, such as HSP-70", "setting": "[5]; immunoblot, selectivity control", "result": "without affecting"}]}
{"compound": "C=CCN1CCC2(C)c3cc(OC(=O)NC)ccc3N(C)C12", "note": "(stereo not drawn) [Compound 20, N^1-allylnorphysostigmine]", "values": [{"measurement": "selectivity of inhibitory action for BChE versus AChE", "setting": "human plasma BChE", "result": "provide BChE selectivity"}]}
{"compound": "Nc1c2c(nc3ccccc13)CCCC2", "note": "[tacrine]", "values": [{"measurement": "secretion of βAPP", "setting": "[1]", "result": "reducing it"}]}
